Source: PubChem BioAssay AID463229 (Broad Institute, 2010)
Where “and” joins values, the source holds several entries; their conditions need not be identical. Equal values may be shown once.

tested on: INS-1E rat beta cells, no cytokines, CellTiter-Glo ATP, 48 h; experiment: cytokine-free beta-cell viability effect – INS-1E rat cells, ATP luminescence, cherry pick, counter-screen for beta-cell apoptosis protection project, dose response (AID 463229)

Row | SMILES | AC50
1 | CCCCCCc1cc2cc(C(=O)Nc3cccc(OC)c3)c(=O)oc2cc1O | 4.41 µM
2 | CCSCCc1nnc(NC(=O)Nc2cccc(C(F)(F)F)c2)s1 | 4.25 µM
3 | CCOC(=O)/C(=C\c1ccccc1)C(=O)c1cc(C(C)=O)c(Nc2ccccc2)s1 | 6.53 µM
4 | N#CC(c1cccc(Cl)c1)c1ccc2c(C(F)(F)F)cc(C(F)(F)F)nc2n1 (centres undefined) | 0.868 µM
5 | O=C(N/N=C\c1c(O)ccc2ccccc12)c1ccc(S(=O)(=O)N2CCCCC2)cc1 | 1.11 µM
6 | CCOc1ccccc1NC(=O)C(=O)N/N=C/c1cc(Br)ccc1O | 4.36 µM
7 | NS(=O)(=O)c1ccc(N/N=C2/CCCCC2C2CCCCC2)c([N+](=O)[O-])c1 (centres undefined) | 8.1 µM
8 | COc1ccc(N/N=C/c2c(C(=O)O)ccc3ccccc23)cc1 | 4.35 µM
9 | COc1ccc(CCNc2ccc(C(CC(N)=O)NC(=O)c3ccc(Br)cc3)cc2[N+](=O)[O-])cc1 (centres undefined) | 16.8 µM
10 | Cc1sc2ncnc(N3CCN(S(=O)(=O)c4ccccc4)CC3)c2c1C | 5.98 µM
11 | Cc1cc[n+](C(C)C(=O)c2ccc(-c3ccccc3)cc2)cc1 (centres undefined) | 3.81 µM
12 | Cc1ccccc1NC1=C/C(=N\S(=O)(=O)c2ccc(C(=O)O)cc2)c2ccccc2C1=O | 12 µM
13 | Cn1nc(C(C)(C)C)cc1C(=O)NCc1ccc2c(c1)OCO2 | 4.47 µM
14 | C=C(C(=O)c1ccccc1)C(C)C(=C)C(=O)c1ccccc1 | 7.84 µM
15 | O=C(N/N=C/c1ccc([N+](=O)[O-])s1)C(O)c1ccccc1 (centres undefined) | 6.99 µM
16 | CCOc1ccc(-n2c(-c3ccccc3)c[n+]3c2CCCCC3)cc1 | 0.85 µM
17 | O=C(NNc1ccccc1Br)C(O)(c1cccc(C(F)(F)F)c1)c1cccc(C(F)(F)F)c1 | 7.06 µM
18 | O=C(NCc1nc(-c2ccc(C(F)(F)F)cc2)no1)Nc1cc(Cl)cc(Cl)c1 | 6.94 µM
19 | O=[N+]([O-])c1ccc(O)c(/C=N/NC(=S)Nc2ccc(Cl)cc2Cl)c1 | 17.9 µM
20 | Cc1ccc2[nH]c(=O)c(C3C(C#N)=C(N)Oc4c3ccc3cccnc43)cc2c1 (centres undefined) | 4.74 µM
21 | Cc1cc(C(=O)C(C)OC(=O)c2ccc(NC(=O)CC#N)cc2)c(C)n1-c1ccc(OC(F)F)cc1 (centres undefined) | 8.14 µM
22 | C=CCn1c(SCN2C(=O)c3ccccc3C2=O)nc2ccc(Cl)cc2c1=O | 7.16 µM
23 | Cc1ccc(C#CC[N+]2(CC#Cc3ccc(C)cc3)CCCCC2)cc1 | 3.33 µM
24 | C/C(=N\NC(=O)c1cc(-c2cccs2)nc2ccccc12)c1ccccn1 | 1.92 µM
25 | CC1CCC(C(C)C)C(OC(=O)Cn2c(-c3ccccc3)[n+](C)c3ccccc32)C1 (centres undefined) | 2.76 µM and 3.37 µM
26 | CCCCCCCC(=O)Nc1ccc(C(=O)N/N=C/c2cccc([N+](=O)[O-])c2)cc1 | 6.63 µM
27 | COc1ccc(C2c3ccc4ccccc4c3Oc3ncn(CCCN(C)C)c(=N)c32)cc1 (centres undefined) | 8.02 µM

Row | SMILES | AC50
28 | COc1cccc(/C=N/Nc2nc(Nc3ccccc3)nc(-n3nc(C)cc3C)n2)c1O | 12.3 µM
29 | CCOC(=O)C(=CNc1ccc(C(O)(C(=O)OCC)C(F)(F)F)cc1C)C(=O)OCC (centres undefined) | 5.26 µM
30 | CC(C)(C)c1ccc(C2CC2C(=O)N/N=C\c2ccc[nH]2)cc1 (centres undefined) | 0.987 µM
31 | Oc1c(N=Nc2ccccn2)ccc2ccccc12 | 1.86 µM
32 | CC1=NNC(=O)/C1=C\c1cn(-c2ccccc2)nc1-c1cccs1 | 7.54 µM
33 | COc1ccc(CNCCc2c(C)[nH]c3ccc(OC(F)(F)F)cc23)c(OC)c1 | 6.6 µM
34 | COC(=O)c1cccc(NC(=O)Nc2ccc(Cl)c(Cl)c2)c1 | 10.4 µM
35 | CC1=C/C(=N\OS(=O)(=O)c2ccccc2)C(C(C)C)=CC1=O | 6.84 µM
36 | O=C(Nc1ccc(Cl)cc1)Nc1nnc(CSCc2ccc(Cl)cc2)s1 | 6.74 µM
37 | O=C(N/N=C/c1ccccc1O)c1ccc2c(c1)OCO2 | 7.41 µM
38 | COc1cccc(C(=O)Oc2c(Br)cc(Br)cc2/C=N/NC(=O)c2cc(C)[nH]n2)c1 | 7.17 µM
39 | CCCCCn1c(=O)c(C(=O)Nc2nc3ccccc3[nH]2)c(O)c2ccccc21 | 7.03 µM
40 | CC(C)N=c1cc2n(-c3ccc(Cl)cc3)c3ccccc3nc-2cc1Nc1ccc(Cl)cc1 | 6.69 µM
41 | COc1ccc(-c2csc(NC(=O)c3ccccc3NS(=O)(=O)c3ccc(F)c(F)c3)n2)cc1 | 3.52 µM
42 | CCOC(=O)CC1CCCCN1C(=O)c1cc(COc2cccc3cnccc23)on1 (centres undefined) | 8.19 µM
43 | O=C(Nc1cccc(Cl)c1)Nc1nnc(-c2ccncc2)s1 | 6.36 µM
44 | COc1ccc(C(=O)NC(=S)NNC(=O)c2cnccn2)cc1 | 5.21 µM
45 | CC(C)c1cccc(C(C)C)c1OC(=O)[C@H]1OC(C(C)(C)C)=C[C@@H]1c1ccccc1 | 7.8 µM
46 | C=CCNC(=S)N/N=C(\C)c1ccccn1 | 1.22 µM
47 | O=C(c1cc(-c2ccccc2Cl)nc2ccccc12)N1CCN(c2ccccn2)CC1 | 4.44 µM
48 | O=[N+]([O-])c1ccc(O)c(/C=N/Nc2nc3ccccc3[nH]2)c1 | 2.01 µM
49 | CCN1CCN(C(c2ccc(C(F)(F)F)cc2)c2ccc3cccnc3c2O)CC1 (centres undefined) | 4.72 µM
50 | Cc1cc(N/N=C/c2ccc(O)cc2O)nc(-c2ccccc2O)n1 | 7.47 µM
51 | Cc1nc2ccccn2c1C(=O)/C=C/c1cccc([N+](=O)[O-])c1 | 7.93 µM
52 | O=[N+]([O-])c1ccc(N2CCN(C(=S)NCc3ccc(Cl)cc3)CC2)cc1 | 10.3 µM
53 | Cc1sc2ncnc(NCC3COc4ccccc4O3)c2c1C (centres undefined) | 2.34 µM
54 | CCN(CC)CCCNC1=C(Cl)C(=O)c2ccccc2C1=O | 13.1 µM
